From US5430150A, “Retroviral protease inhibitors” (American Cyanamid Company, priority 1992, dated 1995)
pIC50: −log10 of the molar value. Where two headings read alike, the source gives them in different places.

How the values were obtained:
HIV-1 protease = HIV-1 protease (Human immunodeficiency virus type 1 group M subtype B, UniProt P04585); assay: biochemical; assay type: biochemical
Procedure: IC50 values for enzyme inhibition are determined using HIV-1 and Amersham's HIV proteinase [^125 I]-scintillation proximity assay (SPA).
Amersham's HIV proteinase [^125 I]-SPA system is a commercial assay incorporating the scintillation proximity assay (SPA) principle available from Amersham International PLC, Bucks, England.
The SPA microspheres provided by Amersham have the substrate linked directly to the surface through a streptavidin-biotin link. The substrate is a 12 residue peptide designed specifically for this application utilizing current knowledge of known cleavage sites for the enzyme and analogue substrate studies. The sequence of the substrate is: [drawing 22]
The peptide is monoiodinated on the tyrosine residue and biotinylated through the epsilon-NH2 group on the lysine. It is linked to the SPA bead via a streptavidin-link. The beads are suspended in a buffer consisting of 5 mM DTT, 1 mM EDTA, 10% w/v glycerol, 0.05% W/v sodium azide, 0.01% v/v Triton X-100 in 25 mM sodium citrate buffer pH 5.5.
The enzyme cleaves at the Phe-Phe bond releasing the ^125 I fragment from the bead. This event causes the removal of detectable signal from the microsphere. […] The rate of reduction in signal is proportional to the activity of the enzyme. The obtained data is used to calculate the IC50 values found in Table 1.

[1] = tested on: HIV-1 strain IIIB in T lymphoid MT-2 cell lines; assay: inhibition of growth of HIV-1 strain IIIB in T lymphoid MT-2 cell lines (metabolic MTT dye); assay type: cell-based; settings: Human immunodeficiency virus 1, IIIB, MT2, 120 h, 5 days; for inhibition at 0.01 µg/mL: 0.010 μg/ml, read-out: % Inhibition at concentration 0.010 μg/ml; for inhibition at 0.039 µg/mL: 0.039 μg/ml, read-out: % Inhibition at concentration 0.039 μg/ml; for inhibition at 0.156 µg/mL: 0.156 μg/ml, read-out: % Inhibition at concentration 0.156 μg/ml; for inhibition at 0.625 µg/mL: 0.625 μg/ml, read-out: % Inhibition at concentration 0.625 μg/ml; for inhibition at 2.5 µg/mL: 2.5 μg/ml, read-out: % Inhibition at concentration 2.5 μg/ml
Procedure: In Table 2, data is shown for the ability of these compounds to inhibit growth of HIV-1 strain IIIB in T lymphoid MT-2 cell lines. The cell line is challenged by free virons selected to result in 90-95% cell death (CPE) by day 5. The protease inhibitor compound is then added in the stated concentration. After 5 days, the surviving cells are measured using metabolic MTT dye.

[2] = Activity of Compounds as Enzyme Inhibitor

SMILES	pIC50 (HIV-1 protease; [2])	inhibition at 0.01 µg/mL [1]	inhibition at 0.039 µg/mL [1]	inhibition at 0.156 µg/mL [1]	inhibition at 0.625 µg/mL [1]	inhibition at 2.5 µg/mL [1]	pIC50 (HIV-1 protease)
CC[C@H](C)[C@H](NC(=O)[C@H](Cc1ccccc1)CC(O)(CO)CN1C[C@H]2CCCC[C@H]2C[C@H]1C(=O)NC(C)(C)C)C(=O)OC (relative stereo) [Example 30, 3S-[2(2S*),3alpha,4abeta,8abeta]]-N-[5-[3-[[(1,1-Dimethylethyl)amino]carbonyl]octahydro-2(1H)-isoquinolinyl]4-hydroxy-4-(hydroxymethyl)-1-oxo-2-(phenylmethyl)pentyl]-L-isoleucine methyl ester]	6.38	–	–	–	–	–	–
CC[C@H](C)[C@H](NC(=O)[C@H](Cc1ccccc1)CC(O)CN1C[C@H]2CCCC[C@H]2C[C@H]1C(=O)NC(C)(C)C)C(=O)NCc1nc2ccccc2[nH]1 (single isomer, unassigned) [Example 24A, [3S-[2[alphaS*(1R*,2R*),gammaR*(or S*),3alpha,4abeta,8abeta]]-N-[1-[[(1H-Benzimidazol-2-ylmethyl)amino]carbonyl]-2-methylbutyl]-3-[(1,1-dimethylethyl)amino]carbonyl]decahydro-gamma-hydroxy-alpha-(pentylmethyl)-2-isoquinolinepentanamide]	7.14	10.7%	63.3%	100%	103%	96%	–
CC[C@H](C)[C@H](NC(=O)[C@H](Cc1ccccc1)CC(O)(CO)CN1C[C@H]2CCCC[C@H]2C[C@H]1C(=O)NC(C)(C)C)C(=O)NCc1nc2ccccc2[nH]1 (stereo partly drawn) [Example 21, [3S-[2[alphaS*(1R*,2R*),gammaR*(and S*),3alpha,4abeta,8abeta]]-N[1-[[(1H-Benzimidazol-2-ylmethyl)amino]carbonyl]-2-methylbutyl]-3-[[(1,1-dimethylethyl)amino]carbonyl]decahydro-gamma-hydroxy-gamma-(hydroxymethyl)alpha-(phenylmethyl)-2-isoquinolinepentanamide]	7.16	0%	8.1%	33%	103%	102%	–
CC[C@H](C)[C@H](NC(=O)[C@H](Cc1ccccc1)CC(O)CN1C[C@H]2CCCC[C@H]2C[C@H]1C(=O)NC(C)(C)C)C(=O)NCc1nc2ccccc2[nH]1 (stereo partly drawn) [Example 23, [3S-[2[alphaS*(1R*,2R*),gammaR* (and S*)],3alpha,4abeta,8abeta]]-N-[1-[[(1H-Benzimidazol-2-ylmethyl)amino]carbonyl]-2-methylbutyl]-3-[[(1,1-dimethylethyl)amino]carbonyl]decahydro-gamma-hydroxy-alpha-(phenylmethyl)-2-isoquinolinepentanamide]	7.14	13%	78.7%	93.6%	95.8%	98.5%	–
CC[C@H](C)[C@H](NC(=O)[C@H](Cc1ccccc1)CC(O)(CO)CN1C[C@H]2CCCC[C@H]2C[C@H]1C(=O)NC(C)(C)C)C(=O)NCc1ccccn1 (stereo partly drawn) [Example 26, [3S-[2[gammaR*(and S*),gamma[alphaS*[1R*,1(R*)]]],3alpha,4abeta,8abeta]]-3-[[(1,1-Dimethylethyl)amino]carbonyl]octahydro-gamma-hydroxy-gamma-(hydroxymethyl)-N-[[2-methyl-1-[[(2-pyridinylmethyl)amino]carbonyl]butyl]-alpha-(phenylmethyl)-2(1H)-isoquinolinepentanamide]	6.13	–	–	–	–	–	–
CC[C@H](C)[C@H](NC(=O)[C@H](Cc1ccccc1)CC(O)CN1C[C@H]2CCCC[C@H]2C[C@H]1C(=O)NC(C)(C)C)C(=O)NCc1ccccn1 (stereo partly drawn) [Example 28, [3S-[2[gammaR*(and S*),gamma[alphaS*[1R,1(R*)]]]],3alpha,4abeta,8abeta]]-3-[[(1,1-Dimethylethyl)amino]carbonyl]octahydro-gamma-hydroxy-N-[2-methyl-1-[[(2-pyridinylmethyl)amino]carbonyl]butyl]-alpha-(phenylmethyl)-2(1H)-isoqinolinepentanamide]	6.81	–	–	–	–	–	–
CC[C@H](C)[C@H](NC(=O)[C@H](Cc1ccccc1)CC(O)CN1C[C@H]2CCCC[C@H]2C[C@H]1C(=O)NC(C)(C)C)C(=O)OC (stereo partly drawn) [Example 32, [3S-[2[2S*,4R*(and S*)],3alpha,4abeta,8abeta]-N-[5-[3-[[(1,1-Dimethylethyl)amino]carbonyl]octahydro-2(1H)-isoquinolinyl]-4-hydroxy-1-oxo-2-(phenylmethyl)pentyl]-L-isoleucinemethyl ester]	6.06	–	–	–	–	–	–
CC(C)(C)NC(=O)[C@@H]1C[C@@H]2CCCC[C@@H]2CN1CC(O)(CO)C[C@@H](Cc1ccccc1)C(=O)N[C@H]1CCCC[C@@H]1NC(=O)c1ccc2ccccc2n1 (stereo partly shown) [Example 35]	7.16	0%	0%	1.97%	0%	0%	–
CC(C)(C)NC(=O)[C@@H]1C[C@@H]2CCCC[C@@H]2CN1CC(O)C[C@@H](Cc1ccccc1)C(=O)N[C@H]1CCCC[C@@H]1NC(=O)c1ccc2ccccc2n1 (stereo partly drawn) [Example 37, [3S-[2[2S*(2R*,1R*)],3alpha,4abeta,8abeta]]-N-2-[[5-[3-[[(1,1-dimethylethyl)amino]carbonyl]octahydro-2(1H )-isoquinolinyl]-4-hydroxy-1-oxo-2-(phenylmethyl)pentyl]amino]cyclohexyl]-2-quinolinecarboxamide]	–	0.95%	0%	0%	4.37%	49.1%	7.14
CC(C)(C)NC(=O)[C@@H]1C[C@@H]2CCCC[C@@H]2CN1CC(O)(CO)C[C@@H](Cc1ccccc1)C(=O)N[C@H]1CCCC[C@@H]1NC(=O)c1cc2ccccc2cn1 (stereo partly shown) [Example 40]	7.26	0%	0%	1.88%	0.91%	13.8%	–
CC(C)(C)NC(=O)[C@@H]1C[C@@H]2CCCC[C@@H]2CN1CC(O)C[C@@H](Cc1ccccc1)C(=O)N[C@H]1CCCC[C@@H]1NC(=O)c1cc2ccccc2cn1 (stereo partly drawn) [Example 42, [3S-[2[alphaS*[1R*,1(2R*)]],3alpha,4abeta,8abeta]]-3-[[(1,1-Dimethylethyl)amino]carbonyl)octahydro-gamma-hydroxy-N-[2-[(3-isoquinolinylcarbonyl)amino]cyclohexyl]-alpha-(phenylmethyl)-2-(1H)-isoquinolinepentanamide]	7.10	4.33%	0%	4.21%	12.9%	86.8%	–
CC[C@H](C)[C@H](NC(=O)[C@H](Cc1ccccc1)CC(O)CN1C[C@H]2CCCC[C@H]2C[C@H]1C(=O)NC(C)(C)C)C(=O)N[C@@H](C)c1nc2ccccc2[nH]1 (stereo partly drawn) [Example 51, [3S-[2alphaS*[1R*,1(R*),2R*]],3alpha,4abeta,8abeta]]-N-[1-[[[1H-benzimidazol-2-yl)ethyl]amino]carbonyl]-2-methylbutyl]-3-[[(1,1-dimethylethyl)amino]carbonyl]octahydro-gamma-hydroxy-alpha-phenylmethyl)-2(1H)-isoquinolinepentanamide]	–	1.67%	2.24%	10.4%	55.1%	72.9%	6.89
